How the values were obtained:
[1] = Biodistribution after single Carboxylated CTX-Cryptophycin dose in NRP1 WT or KO PC-3 xenografts in SCID mice; format: in vivo, mouse; details: single 0.6 mg/kg Carboxylated CTX-Cryptophycin IV
Protocol: Cells used were human prostate cancer cells, PC-3 (ATCC® CRL-1435™) engineered at WuXi AppTec to generate an isogenic pair of cell lines WT (PC-3-sg1-4 WT cells) and KO (PC-3-sg1-9 KO cells) for NRP1. Mice used were female, ˜6 week old, immune compromised NOD. SCID from Charles River laboratories. Identical experiments were performed side by side in the isogenic xenograft models. Drug administration was performed when tumor size reached ˜300 to 500 mm^3. A single dose of Carboxylated CTX-Cryptophycin at 0.6 mg/kg was administered (to mimic dose where differential efficacy was observed) intravenously in the following vehicle: 10% EtOH, 5% Tween80 and 85% saline. Animals were euthanized and whole blood (cardiac puncture) and tumor tissues harvested at predetermined time points from 5 min to 96 h post-dose (n=3 mice per time point). Blood samples were centrifuged to obtain plasma and subsequently stored at −20° C. or lower pending analysis. Tumors were harvested by removing the entire specimen from surrounding tissues. Specimens were immediately rinsed with normal saline solution, blotted dry, then weighed and stored at −20° C. or lower pending analysis. Tumor tissue was cryofractured using the Covaris Cryoprep System (Covaris, Inc.). Once pulverized, samples were lysed in 3:1 (v:w) 1×PBS containing 1× Halt™ Protease Inhibitor Cocktail and 1×EDTA solution (Thermo Scientific, Product No. 78430). Plasma and homogenized tissue samples were extracted via protein precipitation with 3:1 (v:v) methanol:acetonitrile 1:1 (v:v) containing 0.1% acetic acid. […] Pharmacokinetic (PK) parameters were calculated using non-compartmental analysis in C3PO (a proprietary Eisai compound database and pharmacokinetic analysis tool). Mean plasma and tissue concentrations were used to calculate mean PK parameters.

[2] = system: PC-3 human prostate cancer cells; assay: Co-administration of Cryptophycin Payload with CTX or iRGD in subcutaneous PC-3 xenograft model; format: in vivo, mouse; details: Cryptophycin Payload alone at 0.4 mg/kg IV
Protocol: PC-3 human prostate cancer cells (ATCC CRL-1435) were grown in RPMI-1640 medium supplemented with 10% FBS. For inoculation, 2×10^6 PC-3 cancer cells were injected subcutaneously into mice near the right axillary area using a 27-gauge needle in a volume of 0.1 mL. Mice were immune-compromised NU/NU nude females, approximately 6 weeks old from Charles River Labs. Tumors were measured at least twice weekly using calipers and mice were randomized into treatment groups based on tumor size when the average tumor reached approximately 180 mm^3. All treatments were initiated 17 days after tumor inoculation. The experiment included a vehicle-treated group and drug-treated groups (n=5). […]
General health of the mice was monitored and mortality recorded daily. Tumor volume was assessed by caliper (Mitutoyo, Aurora, IL) measurements (mm) using the formula (1×w^2)/2=mm^3, where 1 and w refer to the larger and smaller perpendicular dimensions collected at each measurement. Tumor dimensions were recorded twice per week starting at the initiation of drug treatment. Body weights were recorded twice per week starting on the first day of treatment. Relative body weight was calculated as follows: Relative body weight=(body weight on day of measurement/body weight on first day of treatment). […] The mean±SEM for tumor volume and mean±SEM for relative body weight for each experimental group was calculated. […]

| Structure (SMILES) | Tumor AUC0-96 h of Cryptophycin Metabolite 1 ([1]; NRP1 KO tumors) [pmol·h/g] | Tumor tmax of Cryptophycin Metabolite 1 ([1]; NRP1 KO tumors) [h] | Tumor AUC0-96 h of Cryptophycin Metabolite 1 ([1]; NRP1 WT tumors) [pmol·h/g] | Tumor tmax of Cryptophycin Metabolite 1 ([1]; NRP1 WT tumors) [h] | Antitumor activity (tumor volume) [2] |
| --- | --- | --- | --- | --- | --- |
| COc1ccc(CC2NC(=O)C=CCC(C(C)C3OC3c3ccc(CN4CCN(CCC(C)(C)SC)CC4)cc3)OC(=O)C(CC(C)C)NC(=O)C(C)(C)CNC2=O)cc1Cl (centres unmarked) [Cryptophycin Metabolite 1] | 385 | 24 | 1494 | 48 | – |
| CCCCNC(=O)Cc1ccccc1SSC(C)(C)CCN1CCN(Cc2ccc(C3OC3C(C)C3CC=CC(=O)NC(Cc4ccc(OC)c(Cl)c4)C(=O)NCC(C)(C)C(=O)NC(CC(C)C)C(=O)O3)cc2)CC1 (centres unmarked) [Cryptophycin Payload] | – | – | – | – | significant antitumor activity |
